Assays:
[1] = tested on: MCF-7DOX (doxorubicin-resistant) cells; assay: Clonogenic assay, MCF-7DOX cells; format: cell-based, human
Protocol: The breast cancer cell line MCF-7 (lot HTB-22) was obtained from the American […] (ATCC) and maintained in Dulbecco's H21 medium (MEM) supplemented with 10% Fetal Bovine Serum (FBS) (HyClone, Logan, Utah) in a humidified atmosphere containing 5% CO2 at 37° C. To establish drug resistant cell lines, MCF-7 cells were grown in the presence of either paclitaxel or doxorubicin, beginning at a concentration 1000-fold below that required to kill 50% of the cells (the IC50). The drug concentration was increased 3-fold every two weeks (two passages), with an aliquot of the cells removed for storage in liquid nitrogen before each increase in concentration. Dose escalation continued until all cells died, after which the cells able to tolerate the highest concentration of drug were thawed for subsequent study. In this way, paclitaxel-resistant (MCF-7TAX) and doxorubicin-resistant (MCF-7DOX) cell lines were established. The IC50 for each drug was determined using a clonogenic assay as outlined below. The drug resistant cells were kept in culture in the presence of the maximally tolerated drug dose. Before each experiment, the cell lines were grown for two days in the absence of drug after which fresh medium containing either calphostin C (Sigma Laboratories, Oakville, ON), doxorubicin (Adriamycin PFS®, USP, Mississauga, ON) or paclitaxel (Taxol, Bristol-Myers Squibb, Montreal, QC) was added at the concentrations indicated.
The sensitivity of MCF-7, MCF-7TAX and MCF-7DOX cells to calphostin C, paclitaxel or doxorubicin was determined using a clonogenic assay. Briefly, 2.5×10^5 cells were seeded into 25 cm^2 tissue culture flasks in Dulbecco's H21 medium supplemented with 10% FBS. The cells were allowed to grow overnight, after which the medium was removed and replaced with medium containing varying concentrations of paclitaxel, doxorubicin, or calphostin C (after 2 hours of light exposure to activate the molecule). After 24 hours, the medium (including any floating cells) was transferred to 14 ml screw-capped tubes and centrifuged at 1000 rpm for 10 min. The adherent cells were then released from their flasks by trypsin treatment and suspended in 10 ml of H21 medium. The cell suspension was transferred to the previous tube and all cells harvested by centrifugation. The cell pellet was washed one more time with drug-free medium and resuspended in 300 μl of normal growth medium containing FBS. The cells were then added to 2.7 ml of a methylcellulose solution. The methylcellulose medium was prepared by combining 70 ml of a 2.6% (w/v) methylcellulose solution [Shin-Etsu Chemical Co., Tokyo, Japan] in Iscove's medium (Princess Margaret Hospital, Toronto, ON) with 30 ml of FBS. Three ml syringes equipped with a 16-gauge needle were used for transferring the viscous medium. The mixture was vigorously vortexed for 10 s to ensure an even distribution of cells within the viscous medium. The vortexed samples were then allowed to sit for 30 min to remove air bubbles. A 1.2 ml aliquot of the cell suspension was then transferred to a 6-well plate and the cells allowed to grow until colonies of >50 cells were visible by light microscopy for the various cell lines in the absence of drug. The colonies present in 5 randomly selected fields were then counted by visual inspection.
Calphostin C (Sigma Laboratories, Oakville, ON) was prepared as a 100 μM stock solution in dimethylsulfoxide (Sigma Laboratories, Oakville, ON) and stored at −70° C. in 100 μl aliquots. […]

MCF-7 cells = assay: Microscopic cell morphology (bright field, AO/EB, PI), MCF-7; format: cell-based, human; conditions: 50 nM light-activated calphostin C
Protocol: For microscopic observation, cells were seeded onto standard glass coverslips in 10 cm tissue culture plates with 10 ml of H21 medium and grown for 2 days until 40-50% confluence was obtained. After treatment with paclitaxel, doxorubicin or calphostin C, the cells on the glass coverslips were washed twice with PBS (2.7 mM KCl, 1.0 mM KH2PO4, 137 mM NaCl, 10 mM Na2HPO4, pH 7.4) and stained with acridine orange/ethidium bromide (each at 4 μg/ml in PBS) for 10 min at 37° C.. The coverslips were then washed three times in PBS and mounted onto standard glass slides for morphological evaluation. For propidium iodide (PI) staining, the cells on coverslips were washed twice with PBS and fixed in methanol (cooled to −20° C.) for 20 min. Thirty μl of propidium iodide (PI) staining solution (100 μg/ml PI, 0.1% sodium citrate, 100 μg/ml RNase A and 0.3% Nonidet P-40) were then applied to the coverslips for 5 min. […] The cells were then examined using a Zeiss Axiovert 100 inverted fluorescence microscope. […] For each sample, the number of dead cells was determined by visualization after ethidium bromide staining, whereby only dead cells which have lost membrane integrity allow entry of cell-impermeable ethidium bromide into cells to complex with DNA and induce bright red fluorescence. […] The images were recorded and overlayed using Northern Eclipse software (Empix Imaging Inc., Mississauga, ON).

[2] = tested on: MES-SA human uterine sarcoma cells; assay: Death and cytoplasmic vacuolization, MES-SA; format: cell-based; conditions: data not shown

For COc1c(C[C@@H](C)OC(=O)Oc2ccc(O)cc2)c2c3c(C[C@@H](C)OC(=O)c4ccccc4)c(OC)c(=O)c4c(O)cc(OC)c(c5c(OC)cc(O)c(c1=O)c52)c43 [calphostin C], which IC50 ([1]; MCF-7DOX cells, 24 h drug, calphostin C light-activated 2 h) is on record?
Its IC50 is 64.2 nM.

And the “fold resistance / lower sensitivity compared to MCF-7 cells” value ([1]; MCF-7DOX vs MCF-7)?
The value was “approximately 5 fold”.

What about the “percentage of cells showing cytoplasmic vacuoles” value (MCF-7 cells) of the same molecule?
The value was “Over 50%”.

And the “induction of death and cytoplasmic vacuolization” value [2]?
Its value is “induce both death and cytoplasmic vacuolization”.
